Data taken from US20070253994A1, “Intraspinal Drug Delivery Methods and Devices To Alleviate Chronic Pelvic Pain” (Medtronic, Inc., priority 2006, published 2007).
“Also recorded” adds a separate entry of the source. Structures can show the parent of a compound that is named as a salt.

Assays:
[1] = tested on: micturition reflex of female rats; test: micturition reflex (cystometrogram) of female rats in the interstitial cystitis (IC) model of visceral pain, acetic acid bladder infusion; assay type: in vivo, rat; conditions: for frequency of acetic-acid-induced contractions compared with rate during saline infusion, both doses: both doses of Table 1
[2] = tested on: patients with chronic nonbacterial prostatitis; conditions: typically orally administered; cited from earlier work
[3] = urethane-anesthetized female rats, 0.5% acetic acid bladder infusion, intrathecal, two ascending doses (Table 1)
[4] = female rats, acetic acid infusion, intrathecal, doses of Table 1

In the case of `Clc1cccc(Cl)c1N=C1NCCN1` [Clonidine, Clonidine HCl], the micturition reflex frequency [1, 3] is reported as “no measurable effect”.
In the case of pentosan polysulfate, the “patients for whom treatment proved successful” value [2] is listed as “approximately 40%”.
With `NCC1(CC(=O)O)CCCCC1` [Gabapentin] the “amplitude of bladder contractions” value ([1]; rat, in vivo) was “Neither of these drugs suppressed the amplitude of bladder contractions”, the “frequency of acetic-acid-induced bladder contractions compared with frequency during saline infusion, higher dose” value ([1]; rat, in vivo) was “reduced the frequency of acetic-acid-induced bladder contractions to a level comparable to the normal frequency of contraction seen with saline infusion” and the micturition reflex frequency ([1]; rat, in vivo) was “suppressed micturition reflex frequency in a dose-dependent fashion”. For the same molecule, the “micturition reflex frequency at the higher dose” value ([1]; rat, in vivo) was “effective at reducing the reflex frequency” and the “micturition reflex frequency at the lower dose” value ([1]; rat, in vivo) was “not at the lower dose”.
In the case of `CCCCN1CCCCC1C(=O)Nc1c(C)cccc1C` (stereo not drawn) [Bupivacaine, Bupivacaine HCl], the “amplitude of bladder contractions” value [1, 4] is reported as “no effect on the amplitude of contraction”, the “frequency of acetic-acid-induced contractions compared with rate during saline infusion, both doses” value ([1]; female rats, intrathecal) is reported as “reduced the frequency of acetic-acid-induced contractions below the rate observed during saline infusion” and the micturition reflex frequency ([1]; urethane-anesthetized female rats, 0.5% acetic acid bladder infusion, intrathecal, two ascending doses (Table 1), HCl) is reported as “suppressed micturition reflex frequency in a dose-dependent fashion; also recorded: appeared to suppress the micturition frequency at both doses”.
For `CNCCCN1c2ccccc2CCc2ccccc21` [Desipramine, Desipramine HCl], the “amplitude of bladder contractions” value [1, 4] was “Neither of these drugs suppressed the amplitude of bladder contractions”, the “micturition reflex frequency at the higher dose” value ([1]; female rats, acetic acid infusion, intrathecal, higher dose of Table 1) was “effective at reducing the reflex frequency” and the “micturition reflex frequency at the lower dose” value ([1]; female rats, acetic acid infusion, intrathecal, lower dose of Table 1) was “not at the lower dose”. The “frequency of acetic-acid-induced bladder contractions compared with frequency during saline infusion, higher dose” value ([1]; female rats, intrathecal, higher dose of Table 1) was “reduced the frequency of acetic-acid-induced bladder contractions to a level comparable to the normal frequency of contraction seen with saline infusion” and the micturition reflex frequency [1, 3] was “suppressed micturition reflex frequency in a dose-dependent fashion”.
In the case of `NCC(CC(=O)O)c1ccc(Cl)cc1` (stereo not drawn) [Baclofen], the “amplitude of bladder contractions” value [1, 4] is reported as “Neither baclofen nor ketorolac reduced the amplitude of bladder contraction”, the “frequency of acetic-acid-induced contractions compared with rate during saline infusion, both doses” value ([1]; female rats, intrathecal) is reported as “reduced the acetic-acid-induced contraction frequency in a dose-dependent manner without suppressing it below the normal rate of contraction observed with saline infusion” and the micturition reflex frequency [1, 3] is reported as “statistically significant only at the higher dose”. For the same molecule, the micturition reflex frequency ([1]; urethane-anesthetized female rats, 0.5% acetic acid bladder infusion, intrathecal, two ascending doses (Table 1), listed as baclofen) was “suppressed micturition reflex frequency in a dose-dependent fashion”.
With `O=C(c1ccccc1)c1ccc2n1CCC2C(=O)O` (stereo not drawn) [Ketorolac, Ketorolac tris] the “rats exhibiting a lower reflex frequency, lower dose” value ([1]; 10 rats, intrathecal, lower dose (100 μg per Table 1)) was 8 of 10, the “amplitude of bladder contractions” value [1, 4] was “Neither baclofen nor ketorolac reduced the amplitude of bladder contraction” and the “frequency of acetic-acid-induced contractions compared with rate during saline infusion, both doses” value ([1]; female rats, intrathecal) was “reduced the acetic-acid-induced contraction frequency in a dose-dependent manner without suppressing it below the normal rate of contraction observed with saline infusion”. The “rats in which reflex frequency was reduced, high dose” value ([1]; ten rats tested, intrathecal, high dose (500 μg per Table 1)) was “each of the ten rats tested” and the micturition reflex frequency [1, 3] was “suppressed micturition reflex frequency in a dose-dependent fashion”.
